PubChem BioAssay AID1963845 (Molecular Pharmacology Branch, DTP, NCI, 2024)

Tested on: 429239-143-T-J1-PDC complex spheroid viability
Assay: Anticancer human tumor 429239-143-T-J1-PDC patient-derived small cell lung carcinoma cell line growth inhibition [POLQ]
Conditions: for IC50: curve of first compound; for viability, T/C: stronger effect = lower value
Procedure, shortened: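 Growth inhibition in 3D: complex spheroids (tumor PDC, HUVEC, MSC) treated with POLQ inhibitor combinations; where Cmax unknown, highest tested concentration 10 microM, except SN-38 at 1 microM.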

[1] = second compound 0.0316 µM, first compound 0.0316 µM
[2] = second compound 0.0316 µM, first compound 0.1 µM
[3] = second compound 0.0316 µM, first compound 0.316 µM
[4] = second compound 0.0316 µM, first compound 1 µM
[5] = second compound 0.0316 µM, first compound 3.16 µM
[6] = second compound 0.0316 µM, first compound 10 µM
[7] = second compound 0.1 µM, first compound 0.0316 µM
[8] = second compound 0.1 µM, first compound 0.1 µM
[9] = second compound 0.1 µM, first compound 0.316 µM
[10] = second compound 0.1 µM, first compound 1 µM
[11] = second compound 0.1 µM, first compound 3.16 µM
[12] = second compound 0.1 µM, first compound 10 µM
[13] = second compound 0.316 µM, first compound 0.0316 µM
[14] = second compound 0.316 µM, first compound 0.1 µM
[15] = second compound 0.316 µM, first compound 0.316 µM
[16] = second compound 0.316 µM, first compound 1 µM
[17] = second compound 0.316 µM, first compound 3.16 µM
[18] = second compound 0.316 µM, first compound 10 µM
[19] = second compound 1 µM, first compound 0.0316 µM
[20] = second compound 1 µM, first compound 0.1 µM
[21] = second compound 1 µM, first compound 0.316 µM
[22] = second compound 1 µM, first compound 1 µM
[23] = second compound 1 µM, first compound 3.16 µM
[24] = second compound 1 µM, first compound 10 µM
[25] = second compound 3.16 µM, first compound 0.0316 µM
[26] = second compound 3.16 µM, first compound 0.1 µM
[27] = second compound 3.16 µM, first compound 0.316 µM
[28] = second compound 3.16 µM, first compound 1 µM
[29] = second compound 3.16 µM, first compound 3.16 µM
[30] = second compound 3.16 µM, first compound 10 µM
[31] = second compound 10 µM, first compound 0.0316 µM
[32] = second compound 10 µM, first compound 0.1 µM
[33] = second compound 10 µM, first compound 0.316 µM
[34] = second compound 10 µM, first compound 1 µM
[35] = second compound 10 µM, first compound 3.16 µM
[36] = second compound 10 µM, first compound 10 µM
[37] = second compound 0.0316 µM, first compound 0.00316 µM
[38] = second compound 0.0316 µM, first compound 0.01 µM
[39] = second compound 0.1 µM, first compound 0.00316 µM
[40] = second compound 0.1 µM, first compound 0.01 µM
[41] = second compound 0.316 µM, first compound 0.00316 µM
[42] = second compound 0.316 µM, first compound 0.01 µM
[43] = second compound 1 µM, first compound 0.00316 µM
[44] = second compound 1 µM, first compound 0.01 µM
[45] = second compound 3.16 µM, first compound 0.00316 µM
[46] = second compound 3.16 µM, first compound 0.01 µM
[47] = second compound 10 µM, first compound 0.00316 µM
[48] = second compound 10 µM, first compound 0.01 µM
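Further: luminescence signal used as surrogate measure of viable cells; spheroids exposed to compounds for seven days before readout.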
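Wherever viability, T/C is given: 100% = DMSO vehicle control viability as luminescence relative to vehicle.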

CC1COCCN1c1cc(C2(S(C)(=N)=O)CC2)nc(-c2ccnc3[nH]ccc23)n1 (stereo not drawn) + COC1C(OC(N)=O)C(O)C(Oc2ccc3c(O)c(NC(=O)c4ccc(O)c(CC=C(C)C)c4)c(=O)oc3c2C)OC1(C)C
IC50 (second compound 0.0316 µM): 2270 nM
IC50 (second compound 0.1 µM): 2120 nM
IC50 (second compound 0.316 µM): 1990 nM
IC50 (second compound 1 µM): 2430 nM
IC50 (second compound 3.16 µM): 1880 nM
IC50 (second compound 10 µM): 2580 nM
viability, T/C [1]: 116%
viability, T/C [2]: 100%
viability, T/C [3]: 89.4%
viability, T/C [4]: 79.4%
viability, T/C [5]: 35.6%
viability, T/C [6]: 15.6%
viability, T/C [7]: 107%
viability, T/C [8]: 105%
viability, T/C [9]: 96.2%
viability, T/C [10]: 73.5%
viability, T/C [11]: 37.6%
viability, T/C [12]: 15.1%
viability, T/C [13]: 103%
viability, T/C [14]: 94.3%
viability, T/C [15]: 100%
viability, T/C [16]: 61.1%
viability, T/C [17]: 42.4%
viability, T/C [18]: 17.3%
viability, T/C [19]: 120%
viability, T/C [20]: 94.1%
viability, T/C [21]: 95.3%
viability, T/C [22]: 88.1%
viability, T/C [23]: 38.1%
viability, T/C [24]: 21.4%
viability, T/C [25]: 90.6%
viability, T/C [26]: 109%
viability, T/C [27]: 100%
viability, T/C [28]: 72.6%
viability, T/C [29]: 31.7%
viability, T/C [30]: 18.8%
viability, T/C [31]: 89.8%
viability, T/C [32]: 103%
viability, T/C [33]: 106%
viability, T/C [34]: 72.1%
viability, T/C [35]: 47%
viability, T/C [36]: 16.6%

CCCS(=O)(=O)Nc1ccc(F)c(C(=O)c2c[nH]c3ncc(-c4ccc(Cl)cc4)cc23)c1F + COC1C(OC(N)=O)C(O)C(Oc2ccc3c(O)c(NC(=O)c4ccc(O)c(CC=C(C)C)c4)c(=O)oc3c2C)OC1(C)C
IC50 (second compound 0.0316 µM): > 10000 nM
IC50 (second compound 0.1 µM): > 10000 nM
IC50 (second compound 0.316 µM): 9770 nM
IC50 (second compound 1 µM): 8990 nM
IC50 (second compound 3.16 µM): > 10000 nM
IC50 (second compound 10 µM): 8860 nM
viability, T/C [1]: 105%
viability, T/C [2]: 90.4%
viability, T/C [3]: 101%
viability, T/C [4]: 102%
viability, T/C [5]: 98.6%
viability, T/C [6]: 50.5%
viability, T/C [7]: 95.7%
viability, T/C [8]: 97.4%
viability, T/C [9]: 110%
viability, T/C [10]: 102%
viability, T/C [11]: 92.4%
viability, T/C [12]: 52.5%
viability, T/C [13]: 98.8%
viability, T/C [14]: 96.3%
viability, T/C [15]: 106%
viability, T/C [16]: 87.6%
viability, T/C [17]: 109%
viability, T/C [18]: 48.9%
viability, T/C [19]: 104%
viability, T/C [20]: 100%
viability, T/C [21]: 94.5%
viability, T/C [22]: 98.8%
viability, T/C [23]: 86.2%
viability, T/C [24]: 46%
viability, T/C [25]: 109%
viability, T/C [26]: 96.3%
viability, T/C [27]: 106%
viability, T/C [28]: 83.1%
viability, T/C [29]: 98.5%
viability, T/C [30]: 53.1%
viability, T/C [31]: 92.8%
viability, T/C [32]: 101%
viability, T/C [33]: 104%
viability, T/C [34]: 84.7%
viability, T/C [35]: 119%
viability, T/C [36]: 44.1%

COc1cccc(OCCCN)c1-c1cc(Nc2cnc(C#N)cn2)n[nH]1 + COC1C(OC(N)=O)C(O)C(Oc2ccc3c(O)c(NC(=O)c4ccc(O)c(CC=C(C)C)c4)c(=O)oc3c2C)OC1(C)C
IC50 (second compound 0.0316 µM): 82.1 nM
IC50 (second compound 0.1 µM): 69 nM
IC50 (second compound 0.316 µM): 69.6 nM
IC50 (second compound 1 µM): 64.5 nM
IC50 (second compound 3.16 µM): 57.9 nM
IC50 (second compound 10 µM): 54.9 nM
viability, T/C [37]: 98.8%
viability, T/C [38]: 94.7%
viability, T/C [1]: 79.8%
viability, T/C [2]: 42.2%
viability, T/C [3]: 32%
viability, T/C [4]: 21.3%
viability, T/C [39]: 93.6%
viability, T/C [40]: 92.8%
viability, T/C [7]: 66.6%
viability, T/C [8]: 42.1%
viability, T/C [9]: 26.6%
viability, T/C [10]: 21%
viability, T/C [41]: 99.7%
viability, T/C [42]: 99%
viability, T/C [13]: 72.8%
viability, T/C [14]: 39.1%
viability, T/C [15]: 27.1%
viability, T/C [16]: 20.4%
viability, T/C [43]: 90.8%
viability, T/C [44]: 99.1%
viability, T/C [19]: 70.9%
viability, T/C [20]: 37.3%
viability, T/C [21]: 30.3%
viability, T/C [22]: 24%
viability, T/C [45]: 96.3%
viability, T/C [46]: 99.4%
viability, T/C [25]: 66.7%
viability, T/C [26]: 35.3%
viability, T/C [27]: 28.5%
viability, T/C [28]: 23.1%
viability, T/C [47]: 83.6%
viability, T/C [48]: 83.5%
viability, T/C [31]: 64.7%
viability, T/C [32]: 33.5%
viability, T/C [33]: 34%
viability, T/C [34]: 23.4%

Cn1ncnc1[C@H]1c2n[nH]c(=O)c3cc(F)cc(c23)N[C@@H]1c1ccc(F)cc1 + COC1C(OC(N)=O)C(O)C(Oc2ccc3c(O)c(NC(=O)c4ccc(O)c(CC=C(C)C)c4)c(=O)oc3c2C)OC1(C)C
IC50 (second compound 0.0316 µM): 24.5 nM
IC50 (second compound 0.1 µM): 13.9 nM
IC50 (second compound 0.316 µM): 23.4 nM
IC50 (second compound 1 µM): 15.4 nM
IC50 (second compound 3.16 µM): 13.7 nM
IC50 (second compound 10 µM): 14.3 nM
viability, T/C (second compound 0.0316 µM, first compound 0.000316 µM): 97.7%
viability, T/C (second compound 0.0316 µM, first compound 0.001 µM): 89.6%
viability, T/C [37]: 83.6%
viability, T/C [38]: 62.6%
viability, T/C [1]: 47%
viability, T/C [2]: 27.8%
viability, T/C (second compound 0.1 µM, first compound 0.000316 µM): 104%
viability, T/C (second compound 0.1 µM, first compound 0.001 µM): 105%
viability, T/C [39]: 84.6%
viability, T/C [40]: 51.5%
viability, T/C [7]: 45.5%
viability, T/C [8]: 27.8%
viability, T/C (second compound 0.316 µM, first compound 0.000316 µM): 94.2%
viability, T/C (second compound 0.316 µM, first compound 0.001 µM): 92.4%
viability, T/C [41]: 88.7%
viability, T/C [42]: 64.5%
viability, T/C [13]: 45.7%
viability, T/C [14]: 22.8%
viability, T/C (second compound 1 µM, first compound 0.000316 µM): 98.4%
viability, T/C (second compound 1 µM, first compound 0.001 µM): 93.5%
viability, T/C [43]: 82.9%
viability, T/C [44]: 57.6%
viability, T/C [19]: 36.8%
viability, T/C [20]: 25.4%
viability, T/C (second compound 3.16 µM, first compound 0.000316 µM): 92.1%
viability, T/C (second compound 3.16 µM, first compound 0.001 µM): 90%
viability, T/C [45]: 77.7%
viability, T/C [46]: 58.1%
viability, T/C [25]: 31.5%
viability, T/C [26]: 27.8%
viability, T/C (second compound 10 µM, first compound 0.000316 µM): 89.5%
viability, T/C (second compound 10 µM, first compound 0.001 µM): 90.9%
viability, T/C [47]: 78.9%
viability, T/C [48]: 53.4%
viability, T/C [31]: 39.6%
viability, T/C [32]: 25.1%
